Earlier results as cited in patent US20050171000A1, “Three dimensional coordinates of melanocortin-4 receptors” (The Procter & Gamble Company, priority 2003, published 2005).

Biological target: T1, MC4-R (Rattus norvegicus, UniProt P70596)
T1 construct: host or cells: living rats, intraventricular administration (endogenous receptor)
Conditions: intraventricular administration

T1 sequence (P70596 whole entry): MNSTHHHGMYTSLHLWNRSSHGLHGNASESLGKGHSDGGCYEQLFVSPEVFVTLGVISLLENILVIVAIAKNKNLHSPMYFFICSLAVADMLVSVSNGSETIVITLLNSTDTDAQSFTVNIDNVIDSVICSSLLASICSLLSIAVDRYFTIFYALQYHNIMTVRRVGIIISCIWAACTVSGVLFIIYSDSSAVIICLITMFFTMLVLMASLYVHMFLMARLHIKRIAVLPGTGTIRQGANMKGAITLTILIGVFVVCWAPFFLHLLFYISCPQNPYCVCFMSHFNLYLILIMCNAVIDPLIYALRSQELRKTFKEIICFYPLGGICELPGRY

food intake: reduced
Substance: MTII
